Publication PMC4513902, “Evaluation of a new radiolabeled bombesin derivative with ^99mTc as potential targeted tumor imaging agent” (Journal of Radioanalytical and Nuclear Chemistry, 2013)
Like-named read-outs stand apart in the source and are kept apart here.

What was measured:
[1] = test system: human GRP receptor cell line PC-3; details: after 4 h in PC-3; previous compound; cited from earlier work
Source text: Compare with our pervious compound [^99mTc-tricine-HYNIC^0-D-Tyr^6-D-Trp^8]

Human serum stability = format: in vitro ADME
Experimental: To 1 mL of freshly prepared human serum, we added 100 μl (14.8–29.6 MBq) radiolabeled BB derivative and mixture was incubated at 37 °C. 100 μl aliquots was removed and treated with 200 μl of ethanol at different times up to 24 h. Sample was centrifuged at 3,000 rpm for 15 min to precipitate serum proteins. The supernatant was filtered through a 0.20 μm pore filter and analyzed with RP-HPLC Gradient I to determine radiochemical stability.

[2] = test system: human GRP receptor cell line PC-3; assay: Internalization assay in PC-3 cells; format: cell-based; details: 1 million cells per well, about 150 kBq (2.5 pmol total peptide) per well, acid resistant fraction, gamma counter
Experimental: The human androgen-independent prostate carcinoma cell line PC-3 was obtained from National Cell Bank of Iran (NCBI) affiliated to Pasteur Institute of Iran. The cells were grown in DMEM supplemented with 10 % (v/v) fetal bovine serum (FBS), 1 % L-glutamine (2 mM),1 % penicillin(100 IU/ml)/streptomycin(100 μg/ml) and 1 % amphotericin B(0.25 μg/ml). The cells were incubated at 37 °C in a humidified atmosphere containing 5 % CO2 and were subcultured weekly detaching with trypsin/EDTA solution (0.25 %).
Medium was removed from the 6-well plates contain PC-3 cells with density of 1 million cells per well and cells were washed once with 2 ml of internalization medium (DMEM with 1 % FBS). Furthermore, 1.5 ml internalization medium was added to each well, and the plates were incubated at 37 °C for about 1 h. Afterwards, about 150 kBq (2.5 pmol total peptide mass per well) was added to the medium, and the cells were incubated at 37 °C for various time periods. To determine nonspecific internalization, we incubated cells with the radioligand in the presence of 150 μl, 1 μmol/l Bombesin. The cellular uptake was stopped at appropriate time periods (30 min, 1 h, 2 h and 4 h) by removing medium from the cells and washing twice with 1 ml of ice-cold phosphate-buffered saline (PBS). […] The culture medium, the receptor-bound and internalized fractions were measured radiometrically in a gamma counter.

PC-3 tumor cell = assay: Efflux of radiopeptide from PC-3 tumor cells; format: cell-based, human; details: after 4 h
[3] = Biodistribution in nude mice bearing PC-3 tumors; format: in vivo, mouse
Experimental: Animal experiments were performed in compliance with the regulations of our institution and with generally accepted guidelines governing such a work. A suspension of human PC-3 cells (1 × 10^7) in PBS buffer was subcutaneously injected in the right flank of each nude mouse. Seven to 10 days after inoculation, the tumors were inducted and then an activity of 20 MBq (0.35 nmol) of ^99mTc-Bombesin was injected via the femoral vein. In order to determine the non-specific uptake of the radiopeptides, in receptor-positive organs, a group of 3 animals were injected with 100 μg cold peptide in 50 μl saline as a co-injection with the radiopeptides (blocked animals). After 1, 4 and 24 h, the mice in groups of 3 animals were scarified, organs of interest were collected, weighed and radioactivity was measured in a gamma counter. The percentage of the injected dose per gram (% ID/g) was calculated for each tissue.

[4] = Radiochemical stability post labeling at room temperature; format: physicochemical
[5] = 1 h after injection, nude mice with PC-3 tumor, 20 MBq (0.35 nmol) via femoral vein, n = 3
[6] = 4 h, unblocked vs. blocked mice, P < 0.05

Substance	internalization into PC-3 cells [1] [%]	radiochemical purity remaining in human serum (Human serum stability; after 24 h in freshly prepared human serum, 37 °C, 100 μl (14.8–29.6 MBq) in 1 mL serum, ethanol precipitation, RP-HPLC Gradient I) [%]	time of good stability in human serum (Human serum stability; human serum at 37 °C, no significant impurities detected by HPLC)	internalization into PC-3 cells ([2]; 0.5 h incubation at 37 °C, mean ± SD) [%]	internalization into PC-3 cells ([2]; 1 h incubation at 37 °C, three independent experiments with triplicates) [%]	efflux rate of radiopeptide from PC-3 tumor cell (PC-3 tumor cell)	uptake in PC-3 tumor [3, 5] [% ID/g]	uptake in pancreas [3, 5] [% ID/g]	Reduction of uptake in pancreas by blocking with cold peptide [3, 6] [%]	Reduction of uptake in tumor by blocking with cold peptide [3, 6] [%]	time stable post labeling (radiochemical stability) [4] [h]
[^99mTc-tricine-HYNIC^0-D-Tyr^6-D-Trp^8] BB (6–14)	10.7 ± 1.2										
[^99mTc/tricine/HYNIC^0, D-Tyr^5-D-Tyr^6-D-Phe^13] Bombesin (5–14) NH2 [new bombesin derivative labeled with ^99mTc via HYNIC and tricine as a coligand]		> 90	at least 24 h	2.3 ± 0.9	5.3 ± 1.1	acceptable intercellular trapping	2.11 ± 0.18	1.78 ± 0.09	76	82	≥ 24
